Measurements from patent US8835632B2, “Methods to increase the photostability of dyes” (The University of North Carolina at Chapel Hill, priority 2007, dated 2014).

Key:
Format in all cases: physicochemical
[1] = Photobleaching under constant illumination from a halogen tungsten lamp filtered through glass; settings: MeOH
Text: The photostability of dyes can be important for applications in living cells. The mechanism of photobleaching for merocyanines of varying structure has been examined See Toutchkine et al., J. Am. Chem. Soc. 125:4132-4145 (2003). The photostability of the presently disclosed dyes was characterized by exposing them to constant illumination from a halogen tungsten lamp filtered through glass. This broad spectrum light source provided essentially equal intensity throughout the spectral range where the dyes absorb and where they would be irradiated in vivo (about 600 nm to about 650 nm).

[2] = Absorption and fluorescence spectra, extinction coefficient, fluorescence quantum yield
Protocol: Absorption spectra were recorded on a Hewlett-Packard 8453 diode array UV-Vis spectrophotometer (Agilent Technologies, Inc., Santa Clara, Calif.), and fluorescence measurements were taken on a SPEX® Fluorolog 2 spectrofluorometer (HORIBA Jobin Yvon, Inc., Edison, N.J.). Melting points are not corrected. NMR spectra were obtained on a Varian Mercury 300 MHz (Varian, Inc., Palo Alto, Calif.) or on a Bruker 300 MHz DRX 300 spectrometer (Bruker Biospin Corp., Billerica, Mass.). Mass spectra were obtained on a Hewlett-Packard 1100 high-performance liquid chromatograph equipped with an 1100 mass selective detector (MS-ESI) (Agilent Technologies, Inc.).
With decreasing solvent polarity, the absorption maximum of dyes 1a-b, 2a-d shifted to longer wavelengths, and the intensity of the transition increased (Table 10, FIG. 11).
The SCRF/VSCRF predicted emission energies and the solute dipole moments before and after the vertical emission process are given in Table 16. The dipole moments of AI-BA(4) and AI-SO(4) are further decreased on the S1 surface after geometry relaxation (in MeOH solution), and then increased during the S1→S0 transition. This observation is consistent with the blue shifts of the emission bands of AI-BA(4) and AI-SO(4) with increasing solvent polarity from C6H6 to MeOH. By contrast, the dipole moment of I-SO further decreases after S1 state geometry relaxation, and then decreases during the vertical emission process. This observation also is in agreement with the red shift of the I-SO emission band with increasing solvent polarity from C6H6 to MeOH. Similarly to the absorption case, a negligible red shift (ΔEem=0.017 eV) was predicted for the emission band of I-TBA with increasing solvent polarity. A small red shift from C6H6 to DMF (with ΔEem=0.020 eV, or Δλmax=6 nm) is observed. The nearly equal emission energy observed in C6H6 and MeOH can again result in the explicit interactions between the solute and solvent molecules.

[3] = Relative rate of reaction with chemically generated singlet oxygen in DMSO; settings: 2.5 mM, 1O2 from 1,4-dimethylnaphtalene-1,4-endoperoxide
Protocol: The bleaching rates for the dyes differed by two orders of magnitude. The relative rate constants kr (rel) for product formation during reaction with singlet oxygen were measured by comparing the percent conversions for dyes dissolved in DMSO containing a fixed amount of ^1O2 (2.5 mM solutions; ^1O2 generated by decomposition of 1,4-dimethylnaphtalene-1,4-endoperoxide). The rates were generally higher for dyes with a polar ground state (1a, 2a, 2b, 2d) than for the dyes with their ground state at the “cyanine limit” (3, 4). […] Olefins without allylic hydrogens react with singlet oxygen to form dioxetanes. Dioxetanes are unstable and decompose, to form two carbonyl compounds.

C[n+]1ccc(/C=C/C=C/C2=C([O-])c3ccccc3S2(=O)=O)cc1 [P-SO(4)]
kph * 10^6 (absolute rate of photobleaching) [1]: 28 s^−1 | kph(rel) (relative rate of photobleaching) ([1]; with respect to standard I-TBA in MeOH): 82 | Observed absorption (ε) ([2]; Table 10, BuOH): (64000) | Observed absorption λmax ([2]; Table 10, BuOH): 593 nm | Observed absorption (ε) ([2]; Table 10, C6H6): (178000) | Observed absorption λmax ([2]; Table 10, C6H6): 644 nm | Observed absorption (ε) ([2]; Table 10, CH2Cl2): (187000) | Observed absorption λmax ([2]; Table 10, CH2Cl2): 629 nm | Observed absorption (ε) ([2]; Table 10, CH3CN): (93000) | Observed absorption λmax ([2]; Table 10, CH3CN): 596 nm | Observed absorption (ε) ([2]; Table 10, DMF): (99000) | Observed absorption λmax ([2]; Table 10, DMF): 604 nm | Observed absorption (ε) ([2]; Table 10, DMSO): (77000) | Observed absorption λmax ([2]; Table 10, DMSO): 599 nm | Observed absorption (ε) ([2]; Table 10, EtOH): (61000) | Observed absorption λmax ([2]; Table 10, EtOH): 557 nm | Observed absorption (ε) ([2]; Table 10, MeOH): (54000) | Observed absorption λmax ([2]; Table 10, MeOH): 580 nm | Observed absorption (ε) ([2]; Table 10, OcOH): (80000) | Observed absorption λmax ([2]; Table 10, OcOH): 612 nm | Observed absorption (ε) ([2]; Table 10, i-PrOH): (68000) | Observed absorption λmax ([2]; Table 10, i-PrOH): 597 nm | Observed emission (Φ) ([2]; Table 15, BuOH): 0.048 | Observed emission λmax ([2]; Table 15, BuOH): 640 nm | Observed emission (Φ) ([2]; Table 15, C6H6): 0.002 | Observed emission λmax ([2]; Table 15, C6H6): 656 nm | Observed emission (Φ) ([2]; Table 15, CH2Cl2): 0.082 | Observed emission λmax ([2]; Table 15, CH2Cl2): 650 nm | Observed emission (Φ) ([2]; Table 15, CH3CN): 0.067 | Observed emission λmax ([2]; Table 15, CH3CN): 632 nm | Observed emission (Φ) ([2]; Table 15, DMF): 0.10 | Observed emission λmax ([2]; Table 15, DMF): 635 nm | Observed emission (Φ) ([2]; Table 15, DMSO): 0.067 | Observed emission λmax ([2]; Table 15, DMSO): 636 nm | Observed emission (Φ) ([2]; Table 15, EtOH): 0.029 | Observed emission λmax ([2]; Table 15, EtOH): 634 nm | Observed emission (Φ) ([2]; Table 15, MeOH): 0.018 | Observed emission λmax ([2]; Table 15, MeOH): 630 nm | Observed emission (Φ) ([2]; Table 15, OcOH): 0.082 | Observed emission λmax ([2]; Table 15, OcOH): 644 nm | Observed emission (Φ) ([2]; Table 15, i-PrOH): 0.049 | Observed emission λmax ([2]; Table 15, i-PrOH): 636 nm | kr(rel) (relative rate constants for product formation during reaction with singlet oxygen produced chemically) [3]: 60.3
